Source: ChEMBL document CHEMBL2010711, “Synthesis and comparative evaluation of 4-oxa- and 4-aza-podophyllotoxins as antiproliferative microtubule destabilizing agents” (Bioorg Med Chem Lett, 2012)
The source made the active and inactive calls.

Experiments:
K562 = experiment: Cytotoxicity against human K562 cells after 48 hrs by trypan blue dye exclusion assay; type: functional; details: K562, 48 h
HT-29 = experiment: Cytotoxicity against human HT-29 cells after 48 hrs by trypan blue dye exclusion assay; type: functional; details: HT-29, 48 h
UACC-257 = experiment: Cytotoxicity against human UACC257 cells after 48 hrs by trypan blue dye exclusion assay; type: functional; details: UACC-257, 48 h
Paracentrotus lividus [1] = experiment: Microtubule destabilizing activity in Paracentrotus lividus embryo assessed as embryo spinning at 2 fold less effective threshold concentration after 15 mins to 20 hrs; type: functional, organism-based
UO-31 = experiment: Cytotoxicity against human UO31 cells after 48 hrs by trypan blue dye exclusion assay; type: functional; details: UO-31, 48 h
SK-MEL-2 = experiment: Cytotoxicity against human SK-MEL-2 cells after 48 hrs by trypan blue dye exclusion assay; type: functional; details: SK-MEL-2, 48 h
MDA-MB-231 = experiment: Cytotoxicity against human MDA-MB-231 cells after 48 hrs by trypan blue dye exclusion assay; type: functional; details: MDA-MB-231, 48 h
NCI-H522 = experiment: Cytotoxicity against human NCI-H522 cells after 48 hrs by trypan blue dye exclusion assay; type: functional; details: NCI-H522, 48 h
HCC 2998 = experiment: Cytotoxicity against human HCC2998 cells after 48 hrs by trypan blue dye exclusion assay; type: functional; details: HCC 2998, 48 h
RXF 393 = experiment: Cytotoxicity against human RXF393 cells after 48 hrs by trypan blue dye exclusion assay; type: functional; details: RXF 393, 48 h
SR = experiment: Cytotoxicity against human SR cells after 48 hrs by trypan blue dye exclusion assay; type: functional
SNB-19 = experiment: Cytotoxicity against human SNB19 cells after 48 hrs by trypan blue dye exclusion assay; type: functional; details: SNB-19, 48 h
SK-OV-3 = experiment: Cytotoxicity against human SKOV3 cells after 48 hrs by trypan blue dye exclusion assay; type: functional; details: SK-OV-3, 48 h
SF-268 = experiment: Cytotoxicity against human SF268 cells after 48 hrs by trypan blue dye exclusion assay; type: functional; details: SF-268, 48 h
A498 = experiment: Cytotoxicity against human A498 cells after 48 hrs by trypan blue dye exclusion assay; type: functional; details: A498, 48 h
TK-10 = experiment: Cytotoxicity against human TK10 cells after 48 hrs by trypan blue dye exclusion assay; type: functional; details: TK-10, 48 h
HOP-62 = experiment: Cytotoxicity against human HOP62 cells after 48 hrs by trypan blue dye exclusion assay; type: functional; details: HOP-62, 48 h
MDA-MB-468 = experiment: Cytotoxicity against human MDA-MB-468 cells after 48 hrs by trypan blue dye exclusion assay; type: functional; details: MDA-MB-468, 48 h
T47D = experiment: Cytotoxicity against human T47D cells after 48 hrs by trypan blue dye exclusion assay; type: functional
HCT-116 = experiment: Cytotoxicity against human HCT116 cells after 48 hrs by trypan blue dye exclusion assay; type: functional; details: HCT-116, 48 h
EKVX = experiment: Cytotoxicity against human EKVX cells after 48 hrs by trypan blue dye exclusion assay; type: functional
Malme-3M = experiment: Cytotoxicity against human MALME-3M cells after 48 hrs by trypan blue dye exclusion assay; type: functional
MDA-MB-435 = experiment: Cytotoxicity against human MDA-MB-435 cells after 48 hrs by trypan blue dye exclusion assay; type: functional; details: MDA-MB-435, 48 h
NCI-H322M = experiment: Cytotoxicity against human NCI-H322M cells after 48 hrs by trypan blue dye exclusion assay; type: functional
OVCAR-8 = experiment: Cytotoxicity against human OVCAR8 cells after 48 hrs by trypan blue dye exclusion assay; type: functional; details: OVCAR-8, 48 h
786-0 = experiment: Cytotoxicity against human 786-0 cells after 48 hrs by trypan blue dye exclusion assay; type: functional; details: 786-0, 48 h
HOP-92 = experiment: Cytotoxicity against human HOP92 cells after 48 hrs by trypan blue dye exclusion assay; type: functional; details: HOP-92, 48 h
NCI-H460 = experiment: Cytotoxicity against human NCI-H460 cells after 48 hrs by trypan blue dye exclusion assay; type: functional; details: NCI-H460, 48 h
BT-549 = experiment: Cytotoxicity against human BT549 cells after 48 hrs by trypan blue dye exclusion assay; type: functional; details: BT-549, 48 h
CAKI-1 = experiment: Cytotoxicity against human CAKI-1 cells after 48 hrs by trypan blue dye exclusion assay; type: functional; details: CAKI-1, 48 h
ACHN = experiment: Cytotoxicity against human ACHN cells after 48 hrs by trypan blue dye exclusion assay; type: functional
Paracentrotus lividus [2] = experiment: Antimitotic activity against Paracentrotus lividus embryo assessed as cleavage alteration at 2 fold less effective threshold concentration after 2.5 to 6 hrs; type: functional, organism-based
HCT-15 = experiment: Cytotoxicity against human HCT15 cells after 48 hrs by trypan blue dye exclusion assay; type: functional; details: HCT-15, 48 h
RPMI-8226 = experiment: Cytotoxicity against human RPMI8226 cells after 48 hrs by trypan blue dye exclusion assay; type: functional; details: RPMI-8226, 48 h
DU-145 = experiment: Cytotoxicity against human DU145 cells after 48 hrs by trypan blue dye exclusion assay; type: functional; details: DU-145, 48 h
NCI/ADR-RES = experiment: Cytotoxicity against human NCI/ADR-RES cells after 48 hrs by trypan blue dye exclusion assay; type: functional
Paracentrotus lividus [3] = experiment: Antimitotic activity against Paracentrotus lividus embryo assessed as cleavage arrest at 2 fold less effective threshold concentration after 2.5 to 6 hrs; type: functional, organism-based
NCI-H23 = experiment: Cytotoxicity against human NCI-H23 cells after 48 hrs by trypan blue dye exclusion assay; type: functional; details: NCI-H23, 48 h
LOX IMVI = experiment: Cytotoxicity against human LOXIMVI cells after 48 hrs by trypan blue dye exclusion assay; type: functional
SF-295 = experiment: Cytotoxicity against human SF295 cells after 48 hrs by trypan blue dye exclusion assay; type: functional; details: SF-295, 48 h
OVCAR-3 = experiment: Cytotoxicity against human OVCAR3 cells after 48 hrs by trypan blue dye exclusion assay; type: functional; details: OVCAR-3, 48 h
NCI-H226 = experiment: Cytotoxicity against human NCI-H226 cells after 48 hrs by trypan blue dye exclusion assay; type: functional; details: NCI-H226, 48 h
U-251 = experiment: Cytotoxicity against human U251 cells after 48 hrs by trypan blue dye exclusion assay; type: functional; details: U-251, 48 h
SN12C = experiment: Cytotoxicity against human SN12C cells after 48 hrs by trypan blue dye exclusion assay; type: functional
HL-60(TB) = experiment: Cytotoxicity against human HL-60(TB) cells after 48 hrs by trypan blue dye exclusion assay; type: functional; details: HL-60, 48 h
MCF7 = experiment: Cytotoxicity against human MCF7 cells after 48 hrs by trypan blue dye exclusion assay; type: functional; details: MCF7, 48 h
OVCAR-4 = experiment: Cytotoxicity against human OVCAR4 cells after 48 hrs by trypan blue dye exclusion assay; type: functional; details: OVCAR-4, 48 h
SW-620 = experiment: Cytotoxicity against human SW620 cells after 48 hrs by trypan blue dye exclusion assay; type: functional; details: SW-620, 48 h
MOLT-4 = experiment: Cytotoxicity against human MOLT4 cells after 48 hrs by trypan blue dye exclusion assay; type: functional; details: MOLT-4, 48 h
KM12 = experiment: Cytotoxicity against human KM12 cells after 48 hrs by trypan blue dye exclusion assay; type: functional; details: KM12, 48 h
OVCAR-5 = experiment: Cytotoxicity against human OVCAR5 cells after 48 hrs by trypan blue dye exclusion assay; type: functional; details: OVCAR-5, 48 h
[4] = Cytotoxicity against human Hs 578T cells after 48 hrs by trypan blue dye exclusion assay; type: functional
UACC-62 = experiment: Cytotoxicity against human UACC62 cells after 48 hrs by trypan blue dye exclusion assay; type: functional; details: UACC-62, 48 h
COLO 205 = experiment: Cytotoxicity against human COLO205 cells after 48 hrs by trypan blue dye exclusion assay; type: functional; details: COLO 205, 48 h
IGROV-1 = experiment: Cytotoxicity against human IGROV1 cells after 48 hrs by trypan blue dye exclusion assay; type: functional; details: IGROV-1, 48 h
SK-MEL-5 = experiment: Cytotoxicity against human SK-MEL-5 cells after 48 hrs by trypan blue dye exclusion assay; type: functional; details: SK-MEL-5, 48 h
CCRF-CEM = experiment: Cytotoxicity against human CCRF-CEM cells after 48 hrs by trypan blue dye exclusion assay; type: functional
A549 = experiment: Cytotoxicity against human A549 cells after 48 hrs by trypan blue dye exclusion assay; type: functional; details: A549, 48 h
PC-3 = experiment: Cytotoxicity against human PC3 cells after 48 hrs by trypan blue dye exclusion assay; type: functional; details: PC-3, 48 h
SF-539 = experiment: Cytotoxicity against human SF539 cells after 48 hrs by trypan blue dye exclusion assay; type: functional; details: SF-539, 48 h
SNB-75 = experiment: Cytotoxicity against human SNB75 cells after 48 hrs by trypan blue dye exclusion assay; type: functional; details: SNB-75, 48 h
SK-MEL-28 = experiment: Cytotoxicity against human SK-MEL-28 cells after 48 hrs by trypan blue dye exclusion assay; type: functional; details: SK-MEL-28, 48 h
M14 = experiment: Cytotoxicity against human M14 cells after 48 hrs by trypan blue dye exclusion assay; type: functional; details: M14, 48 h

In the case of COc1ccc2c(c1)NC1=C(C(=O)OC1)C2c1cc(OC)c2c(c1)OCO2 (stereo not given), the GI50 (K562) is reported as under 10 nM, the GI50 (HT-29) is reported as under 10 nM and the GI50 (UACC-257) is reported as 51.2 nM. For the same compound, the Activity (Paracentrotus lividus [1]) was “inactive”, the GI50 (UO-31) was 30 nM and the GI50 (SK-MEL-2) was 26.3 nM. The GI50 (MDA-MB-231) was 26.8 nM, the GI50 (NCI-H522) was under 10 nM and the GI50 (HCC 2998) was 23.3 nM. For the same compound, the GI50 (RXF 393) was under 10 nM, the GI50 (SR) was under 10 nM and the GI50 (SNB-19) was 49.9 nM. It also gave a GI50 (SK-OV-3) of 14.6 nM, a GI50 (SF-268) of under 10 nM and a GI50 (A498) of under 10 nM. The GI50 (TK-10) was 60.7 nM, the GI50 (HOP-62) was 12.1 nM and the GI50 (MDA-MB-468) was under 10 nM. The GI50 (T47D) was over 100000 nM, the GI50 (HCT-116) was under 10 nM and the GI50 (EKVX) was under 10 nM. It also gave a GI50 (Malme-3M) of over 100000 nM, a GI50 (MDA-MB-435) of under 10 nM and a GI50 (NCI-H322M) of 58.3 nM. For the same compound, the GI50 (OVCAR-8) was under 10 nM, the GI50 (786-0) was 24.9 nM and the GI50 (HOP-92) was 86.2 nM. The GI50 (NCI-H460) was 22.5 nM, the GI50 (BT-549) was 46 nM and the GI50 (CAKI-1) was 50.2 nM. The GI50 (ACHN) was 56.7 nM, the Activity (Paracentrotus lividus [2]) was “inactive” and the GI50 (HCT-15) was 28.3 nM. It also gave a GI50 (RPMI-8226) of under 10 nM, a GI50 (DU-145) of 19 nM and a GI50 (NCI/ADR-RES) of under 10 nM. The Activity (Paracentrotus lividus [3]) was “inactive”, the GI50 (NCI-H23) was 20.2 nM and the GI50 (LOX IMVI) was under 10 nM. It also gave a GI50 (SF-295) of under 10 nM, a GI50 (OVCAR-3) of under 10 nM and a TGI (OVCAR-3) of 12.2 nM. The GI50 (NCI-H226) was 10.1 nM, the GI50 (U-251) was 16.8 nM and the GI50 (SN12C) was 19.9 nM. For the same compound, the GI50 (HL-60(TB)) was 20.9 nM, the GI50 (MCF7) was under 10 nM and the GI50 (OVCAR-4) was 19.5 nM. It also gave a GI50 (SW-620) of under 10 nM, a GI50 (MOLT-4) of 12.9 nM and a GI50 (KM12) of under 10 nM. The GI50 (OVCAR-5) was 81.7 nM, the GI50 [4] was under 10 nM and the GI50 (UACC-62) was under 10 nM. It also gave a GI50 (COLO 205) of under 10 nM, a TGI (COLO 205) of 26.8 nM and a GI50 (IGROV-1) of 25 nM. It also gave a GI50 (SK-MEL-5) of 10.8 nM, a GI50 (CCRF-CEM) of under 10 nM and a GI50 (A549) of 14.6 nM. The GI50 (PC-3) was 19.9 nM, the GI50 (SF-539) was under 10 nM and the GI50 (SNB-75) was 42.6 nM. For the same compound, the GI50 (SK-MEL-28) was 56.4 nM and the GI50 (M14) was 13.2 nM.
